This is an account of results in ChEMBL document CHEMBL1141671, “N6-1,3-diphenylurea derivatives of 2-phenyl-9-benzyladenines and 8-azaadenines: synthesis and biological evaluation as allosteric modulators of A2A adenosine receptors” (Eur J Med Chem, 2008).

Test [1] deals with T1, Adenosine receptor A3 (Homo sapiens) (UniProt P0DMS8).
T1 sequence (whole entry): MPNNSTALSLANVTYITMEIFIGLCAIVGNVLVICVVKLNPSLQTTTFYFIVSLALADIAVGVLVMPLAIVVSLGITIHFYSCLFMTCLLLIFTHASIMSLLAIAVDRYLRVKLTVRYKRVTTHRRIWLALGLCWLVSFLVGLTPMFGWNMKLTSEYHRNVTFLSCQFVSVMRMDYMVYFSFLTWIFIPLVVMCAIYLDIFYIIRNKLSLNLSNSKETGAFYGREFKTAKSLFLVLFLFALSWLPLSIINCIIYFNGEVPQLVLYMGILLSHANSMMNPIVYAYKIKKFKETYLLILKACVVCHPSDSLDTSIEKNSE
The test can be described thus: Displacement of [3H]NECA from human recombinant adenosine A3 receptor expressed in CHO cells at 10 uM by liquid scintillation counting relative to control. Type of test: cell-based.

In test [2] the target is T2, Adenosine receptor A2a (Homo sapiens, UniProt P29274). The test can be described thus: Displacement of [3H]ZM241385 from human recombinant adenosine A2A receptor expressed in CHO cells at 10 uM by liquid scintillation counting relative to control. It is filed as cell-based.
Test [3] deals with T2, Adenosine receptor A2a. The test can be described thus: Displacement of [3H]CGS21680 from human recombinant adenosine A2A receptor expressed in CHO cells at 10 uM by liquid scintillation counting relative to control. Type of test: cell-based.
Test [4] concerns the target T3, Adenosine receptor A1 (Rattus norvegicus) (UniProt P25099).
T3 sequence (whole entry): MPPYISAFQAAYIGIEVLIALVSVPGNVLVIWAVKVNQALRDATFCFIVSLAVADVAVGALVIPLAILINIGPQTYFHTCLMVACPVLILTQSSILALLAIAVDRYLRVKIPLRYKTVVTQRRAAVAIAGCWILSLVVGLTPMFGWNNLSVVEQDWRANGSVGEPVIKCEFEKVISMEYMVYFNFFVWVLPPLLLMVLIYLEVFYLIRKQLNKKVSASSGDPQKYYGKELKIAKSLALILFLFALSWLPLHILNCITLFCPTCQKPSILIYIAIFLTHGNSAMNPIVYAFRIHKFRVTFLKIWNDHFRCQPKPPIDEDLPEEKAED
The test can be described thus: Displacement of [3H]CCPA adenosine A1 receptor in Wistar rat cerebral cortex at 10 uM by liquid scintillation counting relative to control. It is filed as tissue-based.

Test [5] addresses T3, Adenosine receptor A1 (Rattus norvegicus). The test can be described thus: Displacement of [3H]DPCPX from adenosine A1 receptor in Wistar rat cerebral cortex at 10 uM by liquid scintillation counting relative to control. It is filed as tissue-based.
Test [6] concerns Aorta. The test can be described thus: Vasorelaxation activity in Wistar rat endothelium-intact aortic ring assessed as inhibition of noradrenaline-induced contraction after 20 mins. The following applies: read-out: pIC50 (converted).
Test [7] deals with Aorta. The experiment in a line: Vasorelaxation activity in Wistar rat endothelium-intact aortic ring assessed as inhibition of noradrenaline-induced contraction at 10 uM after 20 mins. Type of test: functional.
The test system of test [8] is Aorta. The experiment in a line: tissue or blood. As to conditions: Rattus norvegicus, Wistar, 20 min, read-out: pIC50 (converted).
Test [9] concerns Aorta. The test can be described thus: Potentiation of CGS-21680-induced vasorelaxation activity in Wistar rat endothelium-intact aortic ring assessed as inhibition of noradrenaline-induced contraction at 10 uM after 20 mins. It is filed as functional.
Test [10] has as its target T2, Adenosine receptor A2a. The following applies: CHO.
Description: Dissociation of [3H]ZM241385 from human adenosine A2A receptor expressed in CHO cells at 100 uM by liquid scintillation counting relative to control
Test [11] concerns the target T2, Adenosine receptor A2a. As to conditions: CHO. The source holds these as a separate data set.
Description: Displacement of [3H]ZM241385 from human adenosine A2A receptor expressed in CHO cells assessed as time course of dissociation at 10 uM by liquid scintillation counting relative to control
Test [12] deals with T2, Adenosine receptor A2a. The experiment in a line: Displacement of [3H]CGS21680 from human recombinant adenosine A2A receptor expressed in CHO cells by liquid scintillation counting. Type of test: cell-based.
The target in test [13] is T2, Adenosine receptor A2a. The test can be described thus: Displacement of [3H]ZM241385 from human recombinant adenosine A2A receptor expressed in CHO cells by liquid scintillation counting. Type of test: cell-based.
For a further test, the target named is T4, Adenosine receptor A3 (Homo sapiens, UniProt P0DMS8).
T4 sequence (P0DMS8 whole entry): T1 sequence (whole entry)
The experiment in a line: Displacement of [3H]NECA from human recombinant adenosine A3 receptor expressed in CHO cells by liquid scintillation counting. It is filed as cell-based.

Test [14] deals with T5, Adenosine receptor A1 (Rattus norvegicus, UniProt P25099).
T5 sequence (P25099 whole entry): T3 sequence (whole entry)
The test can be described thus: Displacement of [3H]CCPA from adenosine A1 receptor in Wistar rat cerebral cortex by liquid scintillation counting. It is filed as tissue-based.

Test [15] deals with T5, Adenosine receptor A1. The experiment in a line: Displacement of [3H]DPCPX from adenosine A1 receptor in Wistar rat cerebral cortex by liquid scintillation counting. Type of test: tissue-based.

pEC50, pKi: −log10 of the molar value.

T2 sequence (P29274 whole entry): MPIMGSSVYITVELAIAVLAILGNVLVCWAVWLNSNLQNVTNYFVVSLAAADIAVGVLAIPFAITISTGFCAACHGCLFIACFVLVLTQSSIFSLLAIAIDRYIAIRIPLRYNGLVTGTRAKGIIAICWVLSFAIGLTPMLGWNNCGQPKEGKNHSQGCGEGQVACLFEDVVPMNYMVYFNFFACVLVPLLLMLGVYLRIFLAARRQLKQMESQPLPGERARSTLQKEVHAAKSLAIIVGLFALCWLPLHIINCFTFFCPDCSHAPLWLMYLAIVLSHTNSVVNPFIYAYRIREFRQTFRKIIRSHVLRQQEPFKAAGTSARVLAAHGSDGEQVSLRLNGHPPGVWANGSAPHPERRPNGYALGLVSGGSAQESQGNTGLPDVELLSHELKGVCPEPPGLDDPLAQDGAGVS

As to `COc1ccc(NC(=O)Nc2ccc(Nc3nc(-c4ccccc4)nc4c3ncn4Cc3ccccc3)cc2)cc1`, the Activity in test [1] was 56%; at Adenosine receptor A2a [2] it was 166%; on Adenosine receptor A2a [3] it was 120%; in test [4], 68%; in test [5] it was 107%.
On the same counts, the results for `O=C(Nc1ccccc1)Nc1ccc(Nc2nc(-c3ccccc3)nc3c2nnn3Cc2ccccc2)cc1` are 78%, 133%, 57%, 79% and 110%.
For `O=C(Nc1ccccc1)Nc1ccc(Nc2nc(-c3ccccc3)nc3c2ncn3Cc2ccccc2)cc1` the same measures were 53%, 107%, 74%, 73% and 101%.
For `CCNC(=O)[C@H]1O[C@@H](n2cnc3c(N)nc(NCCc4ccc(CCC(=O)O)cc4)nc32)[C@H](O)[C@@H]1O` [CGS-21680], the IC50 was 263 nM in the test with Aorta [6] and 69.2 nM in the test with Aorta [8]. For the same compound, the figures for the Emax at 10 µM in the test on Aorta [7] and in the test on Aorta [9] were 76% and 91%, respectively.
With `O=C(Nc1ccc(F)cc1)Nc1ccc(Nc2nc(-c3ccccc3)nc3c2nnn3Cc2ccccc2)cc1`, the Activity was 92% in test [1]; 167% at Adenosine receptor A2a [2]; 176% at Adenosine receptor A2a [3]; 72% in test [4]; 107% in test [5]. The Kdiss on Adenosine receptor A2a [10] was found to be 0.052 s⁻¹. On Adenosine receptor A2a [11], this compound had a T1/2 of 13.2 s. The pEC50 at Adenosine receptor A2a [12] is 5.00; on Adenosine receptor A2a [13], 4.80.
For the compound `O=C(Nc1ccc(Nc2nc(-c3ccccc3)nc3c2nnn3Cc2ccccc2)cc1)Nc1ccc(C(F)(F)F)cc1`, the Activity in test [1] amounted to 72%; on Adenosine receptor A2a [2], 127%; at Adenosine receptor A2a [3], 180%; in test [4] it was 74%; in test [5], 94%.
`O=C(Nc1ccc(Nc2nc(-c3ccccc3)nc3c2ncn3Cc2ccccc2)cc1)Nc1ccc(C(F)(F)F)cc1`: the Activity in test [1] turned out to be 37%; at Adenosine receptor A2a [2], 149%; on Adenosine receptor A2a [3], 57%; in [4], 67%; in test [5], 106%. Besides, the pKi on Adenosine receptor A3 was 5.25.
Turning to `O=C(Nc1ccc(F)cc1)Nc1ccc(Nc2nc(-c3ccccc3)nc3c2ncn3Cc2ccccc2)cc1`, the Activity turned out to be 70% in test [1]; 111% at Adenosine receptor A2a [2]; 83% at Adenosine receptor A2a [3]; 85% in test [4]; 105% in test [5].
`Nc1ccc(Nc2nc(-c3ccccc3)nc3c2ncn3Cc2ccccc2)cc1`: the Activity in test [1] was 56%; on Adenosine receptor A2a [2], 59%; at Adenosine receptor A2a [3], 44%; in [4] it was 7%; in test [5], 46%. The negative logarithm of the Ki (pKi) is 6.53 on Adenosine receptor A1 [14], 6.40 on Adenosine receptor A1 [15], 5.38 at Adenosine receptor A2a [12] and 5.24 on Adenosine receptor A2a [13].
For `COc1ccc(NC(=O)Nc2ccc(Nc3nc(-c4ccccc4)nc4c3nnn4Cc3ccccc3)cc2)cc1`, the Activity in test [1] was determined as 58%; at Adenosine receptor A2a [2], 142%; on Adenosine receptor A2a [3], 59%; in test [4], 74%; in [5], 105%.
On the same counts, the results for `O=[N+]([O-])c1ccc(Nc2nc(-c3ccccc3)nc3c2nnn3Cc2ccccc2)cc1` are 58%, 98%, 96%, 33% and 105%.
As for `Nc1ccc(Nc2nc(-c3ccccc3)nc3c2nnn3Cc2ccccc2)cc1`, the Activity in test [1] stood at 49%; at Adenosine receptor A2a [2] it was 77%; on Adenosine receptor A2a [3] it was 0%; in test [4] it was 4%; in [5] it was 33%. Moreover, on Adenosine receptor A2a [10], the Kdiss is 0.078 s⁻¹. This compound came in with a T1/2 at Adenosine receptor A2a [11] of 8.89 s. Besides, the negative logarithm of the Ki (pKi) at Adenosine receptor A1 [14] is 6.99; on Adenosine receptor A1 [15], 6.88; on Adenosine receptor A2a [12], 6.55; at Adenosine receptor A2a [13] it was 5.89. Moreover, the pEC50 at Adenosine receptor A1 [15] was 6.12; at Adenosine receptor A2a [13], 5.01.
Take `O=[N+]([O-])c1ccc(Nc2nc(-c3ccccc3)nc3c2ncn3Cc2ccccc2)cc1`: the Activity was determined as 51% in test [1]; 84% at Adenosine receptor A2a [2]; 114% on Adenosine receptor A2a [3]; 2% in test [4]; 84% in [5]. The pKi at Adenosine receptor A1 [14] was 6.24; at Adenosine receptor A1 [15] it was 6.16; on Adenosine receptor A2a [13], 5.72.
